In brackets after ≈: the same amount, converted by molar mass.

Series [1] can be described thus: Oral kinetic assay in mice: plasma concentration of ACX after oral delivery of FCX or ACX-Ac. The note with it: for AUCt, area under the concentration-time curve from 0 to the time of the last quantifiable observation, of ACX / Cmax: ACX measured in plasma after the named compound, oral (intragastric), single 10 mg/kg, sunflower oil; for AUCt, area under the concentration-time curve from 0 to the time of the last quantifiable observation, of ACX: linear-log trapezoidal rule; for Cmax: noncompartmental analysis, read-out: Cmax, maximum observed plasma concentration of ACX. Type of series: in vivo, mice Hsd: ICR (CD-1). On the procedure:
Immunocompetent mice from the strain Hsd: ICR (CD-1) (females, 6-7 weeks old from ENVIGO), were housed under sterile conditions at a constant temperature of 20-22° C. and relative humidity (45-65%) under daily cycles of light/darkness (12 hours). Sterilized water and food were available ad libitum.
ACX-Ac was dissolved at 1 mg/mL in sunflower oil and sterilized by filtration. FCX was dissolved at 2 mg/mL in sunflower oil and sterilized by filtration. Animals were weighted before the assay to determine the appropriate dispensing volume at 5 mL/kg (FCX) or 10 ml/kg (ACX-Ac). Formulations were administered once, intragastrically, at 10 mg/kg. Blood was collected at different time points, as stated in Table 1. It was extracted either through the facial vein or by intracardiac puncture (end points), on recipients containing 5 μL of 0.5 M EDTA.
Blood samples were analyzed by HPLC-MS/MS following proprietary analytical methods and the concentration of ACX in each sample was determined. A non-compartmental pharmacokinetic analysis was carried out using individual plasma concentrations versus sampling times by means of the PKPlus® software version 2.0 (Simulations Plus, Lancaster, CA 93534, USA).

Series [2] can be described thus: Solubility in different lipid vehicle formulations (HPLC assay of the filtered sample). Type of series: physicochemical. As to conditions: about 25 mg compound in 1 mL. The protocol: About 25 mg of compound was weighted into a glass vial and 1 mL of the lipophilic solvent was added to the vial containing the compound. The vial was vortexed for 1 minute followed by sonication for 30 minutes. The resulting solution was visually observed for any undissolved particles. The sonicated sample was filtered through a 0.22 μm PTFE filter and 500 μL of this filtered sample was dissolved with 25 mL of a EtOH: hexane (80:20) solution (“dilution 1”). 1 mL of “dilution 1” was dissolved with 10 mL of ACN to obtain “dilution 2”. 1 mL of “dilution 2” was filtered through a 0.22 μm PTFE filter and directly used for assay by HPLC. The concentration was calculated by extrapolation from a calibration curve. 1.00 mg of standard compound was accurately weighted (precision scale) and diluted to 100 ppm in a volumetric flask.

Setting [3] is: DHA (fish oil), PUFA-enriched oil.

On to `CC(=O)O[C@H]1CC(C)(C)C(=C=C/C(C)=C/C=C/C(C)=C/C=C/C=C(C)/C=C/C=C(\C)C(=O)C[C@@]2(O)C(C)=CC(=O)CC2(C)C)[C@](C)(O)C1` [ACX-Ac, Amarouciaxanthin A acetate], for which the “AUCt, area under the concentration-time curve from 0 to the time of the last quantifiable observation, of ACX” value in series [1] worked out at 80.59 µM·h. Also, the Cmax in series [1] came to 9.35 µM. For the same compound, the “administered compound detected in plasma samples” value in series [1] (oral, 10 mg/kg in sunflower oil) was “not detected”. Besides, in series [1] (oral, 10 mg/kg in sunflower oil, FIG. 1 and Table 3), the “plasma levels of ACX in comparison to those obtained after FX administration” value is on record as “substantially higher”. For the same compound, the solubility in series [2] (setting [3]) turned out to be 18.3 mg/mL; in series [2] (Labrafac Lipophile 1349) it was 21.7 mg/mL; in series [2] (Labrafac MC60), 21.0 mg/mL; in series [2] (Labrafil M 1944CS), 22.6 mg/mL; in series [2] (Labrafil M 2125), 23.0 mg/mL; in series [2] (Labrasol ALF), 22.4 mg/mL. Moreover, the results for the solubility in series [2] (Maisine), in series [2] (Plurol Oleique) and in series [2] (Sunflower oil) were 22.9 mg/mL, 11.9 mg/mL and 19.9 mg/mL, respectively.
Regarding `CC(=O)O[C@H]1CC(C)(C)C(=C=C/C(C)=C/C=C/C(C)=C/C=C/C=C(C)/C=C/C=C(\C)C(=O)C[C@@]23O[C@]2(C)C[C@@H](O)CC3(C)C)[C@](C)(O)C1` [FCX, fucoxanthin], the “AUCt, area under the concentration-time curve from 0 to the time of the last quantifiable observation, of ACX” value in series [1] was 51.19 µM·h. Further, the Cmax in series [1] was determined as 2.87 µM. Also, the “oral absorption of the administered compound” value in series [1] (oral, oil formulation, 10 mg/kg) is “negligible”. The solubility in series [2] (setting [3]) was found to be 4.1 mg/mL (≈ 6.22 mM); in series [2] (Labrafac Lipophile 1349) it was 16.9 mg/mL (≈ 25.6 mM); in series [2] (Labrafac MC60) it was 20.4 mg/mL (≈ 31 mM); in series [2] (Labrafil M 1944CS), 17.6 mg/mL (≈ 26.7 mM); in series [2] (Labrafil M 2125), 23.0 mg/mL (≈ 34.9 mM); in series [2] (Labrasol ALF), 22.3 mg/mL (≈ 33.8 mM). For the same compound, the solubility in series [2] (Maisine) is given as 23.0 mg/mL (≈ 34.9 mM); in series [2] (Plurol Oleique) it was 20.7 mg/mL (≈ 31.4 mM); in series [2] (Sunflower oil), 5.0 mg/mL (≈ 7.59 mM).
For `CC1=CC(=O)CC(C)(C)[C@@]1(O)CC(=O)/C(C)=C/C=C/C(C)=C/C=C/C=C(C)/C=C/C=C(\C)C=C=C1C(C)(C)C[C@H](O)C[C@@]1(C)O` [ACX, Amarouciaxanthin A], the solubility is reported as 7.2 mg/mL (≈ 11.7 mM) in series [2] (setting [3]); 19.0 mg/mL (≈ 30.9 mM) in series [2] (Labrafac Lipophile 1349); 15.9 mg/mL (≈ 25.9 mM) in series [2] (Labrafac MC60); 19.9 mg/mL (≈ 32.4 mM) in series [2] (Labrafil M 1944CS); 20.3 mg/mL (≈ 33 mM) in series [2] (Labrafil M 2125); 22.4 mg/mL (≈ 36.4 mM) in series [2] (Labrasol ALF). Further, the values for the solubility in series [2] (Maisine), in series [2] (Plurol Oleique) and in series [2] (Sunflower oil) were 19.9 mg/mL (≈ 32.4 mM), 16.7 mg/mL (≈ 27.2 mM) and 9.2 mg/mL (≈ 15 mM), respectively.

For the origin of these results see patent US20260263338A1, “COMPOSITIONS COMPRISING AMAROUCIAXANTHIN A ESTERS AND USES THEREOF” (GAT THERAPEUTICS, S.L., priority 2022, published 2026).
